PubChem BioAssay (NCI)
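96-well plates; 48 h exposure; 5 concentrations. Endpoints by linear interpolation between flanking doses. Not reached: highest tested concentration assigned. TGI is the concentration that stops growth completely.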

Assays:
Test in all cases: NCI-60 cell line screen, 48 h
[1] = tested on: UO-31 renal
[2] = tested on: HOP-62 NSCLC
[3] = tested on: HL-60(TB) leukemia
[4] = tested on: COLO 205 colon
[5] = tested on: T-47D breast
[6] = tested on: EKVX NSCLC
[7] = tested on: HCT-15 colon
[8] = tested on: OVCAR-3 ovarian
[9] = tested on: SK-MEL-2 melanoma
[10] = tested on: SNB-75 CNS
[11] = tested on: HS 578T breast
[12] = tested on: NCI-H226 lung
[13] = tested on: TK-10 renal
[14] = tested on: UACC-257 melanoma
[15] = tested on: HOP-92 NSCLC

Row | SMILES | TGI [1] | TGI [2] | TGI [3] | TGI [4] | TGI [5] | TGI [6] | TGI [7] | TGI [8] | TGI [9] | TGI [10] | TGI [11] | TGI [12] | TGI [13] | TGI [14] | TGI [15]
1 | Nc1ncnc2c1ncn2[C@@H]1O[C@H](COC(c2ccccc2)(c2ccccc2)c2ccccc2)[C@@H](OC(=S)Oc2ccccc2)[C@@H]1F | 13.2 µM | 46 µM | 13.3 µM | 24.8 µM | 52.3 µM | 26.6 µM | 12.5 µM | 18.4 µM | 19.4 µM | 32.6 µM | 25.1 µM | 31.8 µM | 32.3 µM | 28.6 µM | 28.6 µM
2 | CN1CCN(c2ccc3c(c2)NCC(=O)N3)CC1 | > 100 µM | > 100 µM | > 100 µM | > 100 µM | > 100 µM | > 100 µM | > 100 µM | > 100 µM | > 100 µM | > 100 µM | > 100 µM | > 100 µM | > 100 µM | > 100 µM | > 100 µM
3 | COc1ccc2c3c1O[C@H](c1ccc(O)cc1)[C@H]3[N+](C)(C)CC2 | > 100 µM | > 100 µM | 96.1 µM | > 100 µM | > 100 µM | > 100 µM | > 100 µM | > 100 µM | > 100 µM | > 100 µM | > 100 µM | > 100 µM | > 100 µM | > 100 µM | > 100 µM
4 | CN=C(Nc1cccc(C(F)(F)F)c1)SCc1ccc(N=C=S)cc1 | 28.4 µM | 31.7 µM | > 100 µM | 30.6 µM | 29.9 µM | 45.1 µM | 20.8 µM |  | 25.6 µM | 28 µM | 54.2 µM | 45 µM | 23.5 µM | 27.3 µM | 30.5 µM
5 | CN(C)CCc1c2c(nc3ccccc13)C(=O)c1cccnc1C2=O | 1.88 µM |  | 0.365 µM | 4.91 µM | 10.6 µM | 5.73 µM | 0.927 µM | 1.34 µM | 4.21 µM | 2.29 µM | 4.15 µM | 0.473 µM | 2.94 µM | 1.03 µM | 8.76 µM
6 | CO/N=C1/c2sccc2[C@H](NC(=O)C(Cc2ccccc2)NC(=O)OC(C)(C)C)[C@@H]1O (stereo partly specified) | > 100 µM | > 100 µM | > 100 µM | > 100 µM | > 100 µM | > 100 µM | > 100 µM | > 100 µM | > 100 µM | > 100 µM | > 100 µM | > 100 µM | > 100 µM | > 100 µM | > 100 µM
7 | Cn1c(=O)n2n(c1=O)C(C)(C13CC4CC(CC(C4)C1)C3)C13CC4CC(CC1C4)CC23 (stereo unspecified) | > 100 µM | > 100 µM | > 100 µM | > 100 µM | > 100 µM | > 100 µM | > 100 µM | > 100 µM | > 100 µM | > 100 µM | > 100 µM | > 100 µM | > 100 µM | > 100 µM | > 100 µM
8 | COc1cc2c3c([nH]c2c(OC)c1OC)CCN(Cc1ccccc1)C3 |  | > 100 µM | > 100 µM | 32 µM | 68.6 µM | > 100 µM | > 100 µM | > 100 µM | 47.1 µM | > 100 µM | > 100 µM | > 100 µM | 78.9 µM | 40 µM | 41.5 µM
9 | C[N+](C)(C)c1ncnc2c1ncn2C1CCCO1 (stereo unspecified) | > 100 µM | > 100 µM | > 100 µM | > 100 µM | > 100 µM | > 100 µM | > 100 µM | > 100 µM | > 100 µM | > 100 µM | > 100 µM | > 100 µM | > 100 µM | > 100 µM | > 100 µM
10 | COC(=O)C(Cc1c[nH]c2ccccc12)N=C1Nc2ccncc2S(=O)(=O)N1c1cccc(OC(C)C)c1 (stereo unspecified) | > 100 µM | > 100 µM | 59.3 µM | > 100 µM | > 100 µM | > 100 µM | > 100 µM | > 100 µM | > 100 µM | > 100 µM | > 100 µM | > 100 µM | > 100 µM | > 100 µM | 43.3 µM
11 | CC(C)(CCC(C)(C)N1OC1c1ccccc1)N1OC1c1ccccc1 (stereo unspecified) | 62.7 µM |  | 44.3 µM | > 100 µM | > 100 µM |  | > 100 µM |  | > 100 µM | > 100 µM | > 100 µM | > 100 µM | > 100 µM | > 100 µM | > 100 µM
12 | CCc1ccc2c(c1)N(CC(C)CN(C)C)c1ccccc1S2 (stereo unspecified) | 10.3 µM | 17.8 µM | 8.66 µM | 8.47 µM | 10.7 µM | 24.3 µM | 17.8 µM | 12.4 µM | 12 µM | 9.94 µM | 18.6 µM | 25.5 µM | 11.4 µM | 7.19 µM | 15.4 µM
13 | COc1cccc(/N=N/C(=NNC(=O)c2ccc(C)cc2)c2ccc(N(C)C)cc2)c1 | > 100 µM |  | > 100 µM | > 100 µM | > 100 µM | > 100 µM | > 100 µM | > 100 µM | > 100 µM |  | > 100 µM | > 100 µM | > 100 µM | > 100 µM | > 100 µM
14 | O=[N+]([O-])c1ccc(C(O)(C#CCN2CCCC2)c2ccccc2)cc1 (stereo unspecified) | > 100 µM | > 100 µM | 36.5 µM | 37.8 µM | 98.9 µM | > 100 µM | > 100 µM | > 100 µM | 75.5 µM | > 100 µM | 95.7 µM | > 100 µM | > 100 µM | 58.7 µM | 51.7 µM
15 | CSc1c(C#N)c(N)n(-c2ccc(Cl)cc2)c(=O)c1C#N | > 100 µM |  | > 100 µM | > 100 µM | > 100 µM | > 100 µM | > 100 µM | > 100 µM | > 100 µM | > 100 µM | > 100 µM | > 100 µM | > 100 µM | > 100 µM | > 100 µM
